Assay results as given in patent US20220380383A1, “NEUROPROTECTIVE PDI MODULATING SMALL MOLECULES AND METHODS OF USE THEREOF” (THE TRUSTEES OF COLUMBIA UNIVERSITY IN THE CITY OF NEW YORK, priority 2018, published 2022).
“Also recorded” adds a separate entry of the source.

Columns and labels:
[1] = target: T1, human catalytic PDI A1 a domain (PDIa) (Homo sapiens, UniProt P07237); test: Isothermal titration calorimetry (ITC) binding to PDIa
T1 construct: made in house; host or cells: Escherichia coli BL21-Gold (DE3)

[2] = tested on: striatal medium spiny neurons in brain slice explants co-transfected with YFP and mHTT; test: HD brain slice assay; format: cell-based, rat
Procedure: Resonances with large chemical shifts are labeled in green. Rat coronal brain slice explants co-transfected with YFP and Tau-4R (FIG. 16B) or striatal brain slice explants co-transfected with YFP and mHTT (FIG. 16C) were treated with LC-43 or DMSO carrier-only for 3 days. The respective regions of each brain slice were then scored for numbers of healthy (FIG. 16B) pyramidal or (FIG. 16C) medium spiny neurons remaining. Data are normalized to the negative control condition set to 100% and plotted as means±SEM. In FIG. 16D, The confocal images shown are maximal z-stacks of 0.5 μm steps (˜20 images per stack). (Bottom) Reduction of neuronal redox state by LC-43. Left, Primary neurons were co-transfected with mCherry (to positively identify transfected neurons) and the genetically encoded ratiometric redox reporter roGFP2. Four days later, the culture medium was changed into an identical formulation except without conventional antioxidant additives. […]
Brain slice explants were prepared and transfected as previously described (Reinhart et al., 2011). […] Striatal medium spiny neurons (MSNs) expressing YFP were visualized under fluorescence microscopy and identified based on their location within brain slices and their characteristic morphology.

Adenosine A1 = Adenosine A1 (Homo sapiens, UniProt P30542); test: Off-target panel, Adenosine A1; format: binding; conditions: Conc. 3 μM
Adrenergic α1B = Adrenergic α1B (Rattus norvegicus, UniProt P15823); test: Off-target panel, Adrenergic α1B; format: binding; conditions: Conc. 3 μM
Prostanoid EP4 = Prostanoid EP4 (Homo sapiens, UniProt P35408); test: Off-target panel, Prostanoid EP4; format: binding; conditions: Conc. 3 μM
[3] = target: Transporter, Norepinephrine (NET) (Homo sapiens, UniProt P23975); test: Off-target panel, Norepinephrine transporter; format: binding; conditions: Conc. 3 μM
ADORA2A = target: T2, ADORA2A (Homo sapiens, UniProt P29274); test: Safety47 panel GPCR ADORA2A; format: cell-based; conditions: 3 μM
T2 construct: CEREP (CRO that ran the panel)
Source text: (§1) LOC14 was also submitted for testing in CEREP's Safety47 panel. CEREP is a CRO specializing in preclinical research, discovery and development of new pharmaceutical drugs.

AR = target: T3, AR (Homo sapiens, UniProt P10275); test: Safety47 panel nuclear hormone receptor AR; format: cell-based; conditions: 3 μM
T3 construct: CEREP (CRO panel)
Source text: as §1

SERT = target: T4, SERT (Homo sapiens, UniProt P31645); test: Safety47 panel transporter SERT; format: cell-based; conditions: Blocker mode; 3 μM
T4 construct: CEREP (CRO panel)
Source text: as §1

GABAA = test: Safety47 panel ion channel GABAA; format: cell-based, human; conditions: 3 μM
Source text: as §1

HTR3A = target: T5, HTR3A (Homo sapiens, UniProt P46098); test: Safety47 panel ion channel HTR3A; format: cell-based; conditions: 3 μM
T5 construct: CEREP (CRO panel)
Source text: as §1

KvLQT1/minK = target: T6, KvLQT1/minK (Homo sapiens, UniProt P51787); test: Safety47 panel ion channel KvLQT1/minK; format: cell-based; conditions: 3 μM
T6 construct: CEREP (CRO panel)
Source text: as §1

NAV1.5 = target: T7, NAV1.5 (Homo sapiens, UniProt Q14524); test: Safety47 panel ion channel NAV1.5; format: cell-based; conditions: Blocker mode; 3 μM
T7 construct: CEREP (CRO panel)
Source text: as §1

AChE = target: T8, AChE (Homo sapiens, UniProt P22303); test: Safety47 panel non-kinase enzyme AChE; format: biochemical; conditions: Inhibitor mode; 3 μM
T8 construct: CEREP (CRO panel)
Source text: as §1

COX2 = target: T9, COX2 (Homo sapiens, UniProt P35354); test: Safety47 panel non-kinase enzyme COX2; format: biochemical; conditions: Inhibitor mode; 3 μM
T9 construct: CEREP (CRO panel)
Source text: as §1

PDE4D2 = target: T10, PDE4D2 (Homo sapiens, UniProt Q08499); test: Safety47 panel non-kinase enzyme PDE4D2; format: biochemical; conditions: Inhibitor mode; 3 μM
T10 construct: CEREP (CRO panel)
Source text: as §1

VEGFR2 = target: T11, VEGFR2 (Homo sapiens, UniProt P35968); test: Safety47 panel kinase VEGFR2; format: biochemical; conditions: Inhibitor mode; 3 μM
T11 construct: CEREP (CRO, Safety47 panel)
Source text: as §1

CYP1A2 = target: T12, CYP1A2 (Homo sapiens, UniProt P05177); test: CYP450 inhibition, CYP1A2; format: in vitro ADME; conditions: high concentration of 30 μM
T12 construct: Cyprotex (CRO)

47 human targets = test: CEREP Safety47 panel (summary); conditions: 3 μM
Source text: as §1

T5 sequence (P46098 24-478): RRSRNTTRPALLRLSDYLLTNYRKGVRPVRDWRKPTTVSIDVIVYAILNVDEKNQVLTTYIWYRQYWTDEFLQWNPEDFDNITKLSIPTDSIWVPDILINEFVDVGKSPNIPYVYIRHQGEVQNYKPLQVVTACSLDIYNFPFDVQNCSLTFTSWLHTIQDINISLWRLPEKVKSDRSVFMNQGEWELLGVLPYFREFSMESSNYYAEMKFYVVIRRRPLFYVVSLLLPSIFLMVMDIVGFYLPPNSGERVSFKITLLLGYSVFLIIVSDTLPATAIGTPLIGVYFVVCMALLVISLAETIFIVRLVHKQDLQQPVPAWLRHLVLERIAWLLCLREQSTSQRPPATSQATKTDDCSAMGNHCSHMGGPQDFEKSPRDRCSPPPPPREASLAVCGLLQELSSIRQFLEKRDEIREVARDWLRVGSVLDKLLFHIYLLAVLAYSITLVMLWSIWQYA
T3 sequence (P10275 whole entry): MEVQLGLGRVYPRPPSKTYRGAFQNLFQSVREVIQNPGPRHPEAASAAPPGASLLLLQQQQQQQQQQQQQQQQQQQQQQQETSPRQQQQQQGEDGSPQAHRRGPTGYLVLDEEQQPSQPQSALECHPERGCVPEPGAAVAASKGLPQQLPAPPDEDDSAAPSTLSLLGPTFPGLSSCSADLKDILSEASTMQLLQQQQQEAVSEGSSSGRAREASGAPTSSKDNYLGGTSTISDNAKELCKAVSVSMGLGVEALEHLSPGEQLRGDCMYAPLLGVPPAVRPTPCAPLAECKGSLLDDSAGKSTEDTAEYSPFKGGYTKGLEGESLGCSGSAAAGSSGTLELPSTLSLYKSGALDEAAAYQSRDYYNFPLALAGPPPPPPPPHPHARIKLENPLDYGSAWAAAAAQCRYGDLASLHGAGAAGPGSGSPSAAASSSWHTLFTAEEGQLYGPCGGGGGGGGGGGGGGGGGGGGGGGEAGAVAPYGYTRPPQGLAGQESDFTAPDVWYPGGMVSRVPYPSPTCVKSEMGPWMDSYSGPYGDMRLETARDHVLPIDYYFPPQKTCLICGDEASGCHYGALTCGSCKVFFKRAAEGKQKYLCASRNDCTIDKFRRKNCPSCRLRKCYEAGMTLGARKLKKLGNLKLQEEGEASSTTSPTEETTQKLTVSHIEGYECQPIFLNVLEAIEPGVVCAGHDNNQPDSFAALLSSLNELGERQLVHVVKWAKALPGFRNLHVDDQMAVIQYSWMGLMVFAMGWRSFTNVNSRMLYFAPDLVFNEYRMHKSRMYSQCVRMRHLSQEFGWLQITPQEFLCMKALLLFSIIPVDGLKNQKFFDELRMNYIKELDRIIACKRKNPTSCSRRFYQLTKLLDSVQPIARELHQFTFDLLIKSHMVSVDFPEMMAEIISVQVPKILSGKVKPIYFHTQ
T2 sequence (P29274 whole entry): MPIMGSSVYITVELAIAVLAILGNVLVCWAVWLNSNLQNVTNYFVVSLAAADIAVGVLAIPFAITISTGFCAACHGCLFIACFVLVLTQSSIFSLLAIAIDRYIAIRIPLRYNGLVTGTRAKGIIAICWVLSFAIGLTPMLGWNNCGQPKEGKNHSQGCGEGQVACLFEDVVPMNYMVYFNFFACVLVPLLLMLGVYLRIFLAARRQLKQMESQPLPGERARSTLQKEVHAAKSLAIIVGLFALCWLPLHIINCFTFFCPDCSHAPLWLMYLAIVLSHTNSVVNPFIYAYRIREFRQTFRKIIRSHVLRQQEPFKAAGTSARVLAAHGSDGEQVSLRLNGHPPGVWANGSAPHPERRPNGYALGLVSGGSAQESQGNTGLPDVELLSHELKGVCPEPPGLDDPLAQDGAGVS
T1 sequence (P07237 18-134): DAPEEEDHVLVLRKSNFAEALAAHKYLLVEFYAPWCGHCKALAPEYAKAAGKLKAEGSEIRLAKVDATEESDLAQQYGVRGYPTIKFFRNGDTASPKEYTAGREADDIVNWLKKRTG
T12 sequence (P05177 whole entry): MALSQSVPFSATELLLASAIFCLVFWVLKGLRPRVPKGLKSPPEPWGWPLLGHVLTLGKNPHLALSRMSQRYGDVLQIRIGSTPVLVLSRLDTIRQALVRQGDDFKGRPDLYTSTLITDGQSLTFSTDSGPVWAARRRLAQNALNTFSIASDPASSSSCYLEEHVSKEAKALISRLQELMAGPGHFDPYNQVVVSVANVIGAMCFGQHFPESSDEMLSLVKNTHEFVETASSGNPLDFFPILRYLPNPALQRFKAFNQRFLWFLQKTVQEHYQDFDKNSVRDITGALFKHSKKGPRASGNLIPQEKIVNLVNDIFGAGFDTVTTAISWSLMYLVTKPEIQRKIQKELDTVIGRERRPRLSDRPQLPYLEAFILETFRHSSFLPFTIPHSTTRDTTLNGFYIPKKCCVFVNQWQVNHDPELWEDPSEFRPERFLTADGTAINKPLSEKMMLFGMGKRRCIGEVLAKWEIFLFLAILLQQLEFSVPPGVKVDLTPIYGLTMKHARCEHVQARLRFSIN
Chain of Adenosine A1 (P30542 whole entry): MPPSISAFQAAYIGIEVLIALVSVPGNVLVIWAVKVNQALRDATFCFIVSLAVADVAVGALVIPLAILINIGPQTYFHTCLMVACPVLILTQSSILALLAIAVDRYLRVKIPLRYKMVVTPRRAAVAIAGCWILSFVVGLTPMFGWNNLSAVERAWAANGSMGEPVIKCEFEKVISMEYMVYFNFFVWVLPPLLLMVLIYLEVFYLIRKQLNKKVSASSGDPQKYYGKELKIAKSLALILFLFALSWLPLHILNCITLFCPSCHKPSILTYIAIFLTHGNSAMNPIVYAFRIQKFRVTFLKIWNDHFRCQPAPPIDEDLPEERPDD
Chain of Prostanoid EP4 (P35408 whole entry): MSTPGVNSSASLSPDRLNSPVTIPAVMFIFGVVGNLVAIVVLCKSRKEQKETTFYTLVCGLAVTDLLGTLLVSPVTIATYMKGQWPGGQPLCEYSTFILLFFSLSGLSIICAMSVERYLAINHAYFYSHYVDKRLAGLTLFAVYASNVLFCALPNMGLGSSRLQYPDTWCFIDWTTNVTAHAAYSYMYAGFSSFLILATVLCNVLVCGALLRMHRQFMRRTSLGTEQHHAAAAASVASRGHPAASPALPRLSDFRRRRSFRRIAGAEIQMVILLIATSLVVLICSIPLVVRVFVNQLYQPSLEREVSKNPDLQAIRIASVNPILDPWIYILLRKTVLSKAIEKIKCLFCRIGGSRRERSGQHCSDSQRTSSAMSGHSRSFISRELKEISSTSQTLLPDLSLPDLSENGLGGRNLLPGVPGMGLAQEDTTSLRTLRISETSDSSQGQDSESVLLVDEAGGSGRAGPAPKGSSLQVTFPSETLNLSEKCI
T11 sequence (P35968 20-1356): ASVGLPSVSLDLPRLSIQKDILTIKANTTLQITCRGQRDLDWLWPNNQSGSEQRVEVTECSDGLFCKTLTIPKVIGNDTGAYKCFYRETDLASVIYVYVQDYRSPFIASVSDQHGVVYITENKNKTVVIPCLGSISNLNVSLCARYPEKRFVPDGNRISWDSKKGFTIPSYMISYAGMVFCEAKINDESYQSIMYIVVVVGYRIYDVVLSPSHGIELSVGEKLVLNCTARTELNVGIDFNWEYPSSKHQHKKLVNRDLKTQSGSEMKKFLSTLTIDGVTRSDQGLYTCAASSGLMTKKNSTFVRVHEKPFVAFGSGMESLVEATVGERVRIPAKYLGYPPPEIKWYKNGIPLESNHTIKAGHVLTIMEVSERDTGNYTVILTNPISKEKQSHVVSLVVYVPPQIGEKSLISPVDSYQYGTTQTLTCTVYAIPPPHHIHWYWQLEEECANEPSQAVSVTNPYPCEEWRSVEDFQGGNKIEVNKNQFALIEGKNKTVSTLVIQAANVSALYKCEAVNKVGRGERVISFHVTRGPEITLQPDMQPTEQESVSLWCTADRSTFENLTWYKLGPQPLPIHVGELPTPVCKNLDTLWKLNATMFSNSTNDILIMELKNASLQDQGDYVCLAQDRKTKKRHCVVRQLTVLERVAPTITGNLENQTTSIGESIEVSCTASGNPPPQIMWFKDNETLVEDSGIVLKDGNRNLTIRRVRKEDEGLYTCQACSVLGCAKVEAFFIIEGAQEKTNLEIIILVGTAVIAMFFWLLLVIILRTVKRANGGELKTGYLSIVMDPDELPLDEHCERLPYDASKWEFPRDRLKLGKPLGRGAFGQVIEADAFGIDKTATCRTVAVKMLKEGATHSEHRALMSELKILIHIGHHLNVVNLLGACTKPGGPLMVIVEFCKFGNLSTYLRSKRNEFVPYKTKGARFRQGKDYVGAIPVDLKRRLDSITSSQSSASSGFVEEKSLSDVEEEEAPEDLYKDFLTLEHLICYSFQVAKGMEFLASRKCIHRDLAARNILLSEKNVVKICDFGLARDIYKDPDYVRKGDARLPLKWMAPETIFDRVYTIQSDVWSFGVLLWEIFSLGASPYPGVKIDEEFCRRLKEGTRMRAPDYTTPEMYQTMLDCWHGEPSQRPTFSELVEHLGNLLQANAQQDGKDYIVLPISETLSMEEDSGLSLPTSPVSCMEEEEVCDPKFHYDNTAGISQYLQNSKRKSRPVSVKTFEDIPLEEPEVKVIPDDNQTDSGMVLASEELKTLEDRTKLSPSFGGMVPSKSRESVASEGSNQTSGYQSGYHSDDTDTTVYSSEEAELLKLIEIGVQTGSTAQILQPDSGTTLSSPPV

**Q.** With `O=C(C1CC1)N1CCN(Cn2sc3c(F)cccc3c2=O)CC1` [LC-43] as the molecule, how does the “binding to PDI by ITC” value [1] read?
**A.** Its value is “showed no binding to the protein by ITC”.

**Q.** What about the “ITC KD” value ([1]; N/A = not active) of the same molecule?
**A.** Its value is “KD = N/A irreversible or not active”.

**Q.** And the “rescue of medium spiny neurons in HD brain slice” value ([2]; 3 days treatment)?
**A.** Its value is “dose-dependent rescue; also recorded: robust neuroprotection”.

**Q.** And the “concentration that provided peak rescue” value ([2]; HD brain slice assay)?
**A.** Its value is 10 µM.

**Q.** How did the inhibition at 3 µM (Adenosine A1) turn out when `O=C(C1CC1)N1CCN(Cn2sc3ccccc3c2=O)CC1` [LOC14] was run?
**A.** The inhibition at 3 µM was 8%.

**Q.** What about the inhibition at 3 µM (Adrenergic α1B) of the same molecule?
**A.** Its inhibition at 3 µM is 2%.

**Q.** And the inhibition at 3 µM (Prostanoid EP4)?
**A.** The inhibition at 3 µM was 32%.

**Q.** What about the inhibition at 3 µM [3] of the same molecule?
**A.** The inhibition at 3 µM was 24%.

**Q.** What about the “Average % Response” value (ADORA2A; Agonist mode) of the same molecule?
**A.** The value was 2.6%.

**Q.** What about the “Average % Response” value (ADORA2A; Antagonist mode) of the same molecule?
**A.** The value was 2.4%.

**Q.** What about the Average (AR; Agonist mode) of the same molecule?
**A.** Its Average is 0.0.

**Q.** And the Average (AR; Antagonist mode)?
**A.** The Average was 5.4.

**Q.** And the Average (SERT)?
**A.** Its Average is 5.0.

**Q.** And the Average (GABAA; Blocker mode)?
**A.** The Average was 5.1.

**Q.** What about the Average (GABAA; Opener mode) of the same molecule?
**A.** Its Average is 0.0.

**Q.** And the Average (HTR3A; Blocker mode)?
**A.** The Average was 0.0.

**Q.** What about the Average (HTR3A; Opener mode) of the same molecule?
**A.** The Average was 2.5.

**Q.** What about the Average (KvLQT1/minK; Blocker mode) of the same molecule?
**A.** Its Average is 0.0.

**Q.** And the Average (KvLQT1/minK; Opener mode)?
**A.** The Average was 9.8.

**Q.** What about the Average (NAV1.5) of the same molecule?
**A.** Its Average is 7.0.

**Q.** What about the Average (AChE) of the same molecule?
**A.** The Average was 2.8.

**Q.** And the Average (COX2)?
**A.** The Average was 2.8.

**Q.** What about the Average (PDE4D2) of the same molecule?
**A.** Its Average is 0.0.

**Q.** What about the Average (VEGFR2) of the same molecule?
**A.** Its Average is 17.2.

**Q.** What about the “inhibition of CYP1A2” value (CYP1A2) of the same molecule?
**A.** Its value is “inhibits”.

**Q.** What about the “off-target effects in Safety47 panel” value (47 human targets) of the same molecule?
**A.** Its value is “no significant off-target effects”.
